Key:
BRAF (wild-type) = molecular target: T1, BRAF (wild-type) (Homo sapiens, UniProt P15056); experiment: Reaction Biology kinase HotSpot enzyme assay; format: biochemical; conditions: 1 µM ATP; mean ± S.D. of two separate experiments
T1 construct: purchased Reaction Biology Corp. (Kinase HotSpot service)
Protocol: The enzymatic assays were performed in Reaction Biology Corp. using the standard protocol at 1 µM ATP and threefold dilution factor (detailed procedure is found in the Supplementary Information page 52 s).
(§1) Reaction Biology Corp. Kinase HotSpotTM service http://www.reactionbiology.com was used for screening of compounds IC50 Proﬁler Express for IC50 measurement. Assay protocol: In a ﬁnal reaction volume of 25 μL, kinase (5–10 mU) is incubated with 25 mM Tris pH 7.5, 0.02 mM EGTA, 0.66 mg/mL myelin basic protein, 10 mM magnesium acetate and [γ33P-ATP] (speciﬁc activity approx. 500 cpm/pmol, concentration as required). The reaction is initiated by the addition of the Mg-ATP mix. After incubation for 40 min at room temperature, the reaction is stopped by the addition of 5 μL of a 3% phosphoric acid solution. 10 μL of the reaction is then spotted onto a P30 ﬁltermat, and washed three times for 5 min in 75 mM phosphoric acid and once in methanol prior to drying and scintillation counting.

CRAF = CRAF (Homo sapiens, UniProt P04049); experiment: Reaction Biology kinase HotSpot enzyme assay; format: biochemical; conditions: 1 µM ATP; mean ± S.D. of two separate experiments; read-out: IC50 CRAF
Chain of CRAF (P04049 whole entry): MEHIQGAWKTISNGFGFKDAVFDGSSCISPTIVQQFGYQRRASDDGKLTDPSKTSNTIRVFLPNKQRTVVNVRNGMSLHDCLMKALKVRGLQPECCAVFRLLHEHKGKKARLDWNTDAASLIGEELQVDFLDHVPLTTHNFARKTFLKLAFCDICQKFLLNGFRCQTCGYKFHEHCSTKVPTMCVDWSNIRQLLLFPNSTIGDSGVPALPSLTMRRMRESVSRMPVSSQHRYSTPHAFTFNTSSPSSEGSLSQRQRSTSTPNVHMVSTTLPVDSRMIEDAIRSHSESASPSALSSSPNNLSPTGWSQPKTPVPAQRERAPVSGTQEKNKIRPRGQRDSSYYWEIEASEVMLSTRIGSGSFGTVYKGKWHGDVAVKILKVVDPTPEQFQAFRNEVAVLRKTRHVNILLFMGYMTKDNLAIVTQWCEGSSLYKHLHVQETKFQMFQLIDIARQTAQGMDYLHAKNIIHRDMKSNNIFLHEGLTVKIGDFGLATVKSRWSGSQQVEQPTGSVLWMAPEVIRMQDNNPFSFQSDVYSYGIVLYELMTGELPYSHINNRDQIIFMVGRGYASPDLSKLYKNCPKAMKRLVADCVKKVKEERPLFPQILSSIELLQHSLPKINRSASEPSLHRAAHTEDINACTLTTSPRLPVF
Protocol: as §1

U251 = experiment: NCI 60 cell line screen; format: cell-based, human; conditions: Homo sapiens, U-251; U251, CNS-Cancer; read-out: Percent growth
Protocol: (§2) Anticancer profiling over a panel of 60 cancer cell lines was carried out at the National Cancer Institute (NCI), Bethesda, Maryland, USA, https://dtp.cancer.gov/discovery_development/nci-60/methodology.htm (Last visit 22 September 2021), using the standard procedure (detailed procedure is located in the Supplementary Information page 50 s).
(§3) NCI standard procedure for 60 cell lines assay
(§4) The human tumor cell lines of the cancer screening panel are grown in RPMI 1640 mediu m containing 5% fetal bovine serum and 2 mM L-glutamine. For a typical screening experiment, cells are inoculated into 96 well microtiter plates in 100 μL at plating densities ranging from 5,000 to 40,000 cells/well depending on the doubling time of individual cell lines. After cell inoculation, the microtiter plates are incubated at 37° C, 5 % CO2, 95 % air and 100 % relative humidity for 24 h prior to addition of experimental drugs.
(§5) After 24 h, two plates of each cell line are fixed in situ with TCA, to represent a measurement of the cell population for each cell line at the time of drug addition (Tz). Experimental drugs are solubilized in dimethyl sulfoxide at 400-fold the desired final maximum test concentration (10 µM) and stored frozen prior to use. At the time of drug addition, an aliquot of frozen concentrate is thawed and diluted to twice the desired final maximum test concentration with co mp lete medium containing 50 μg/ml gentamicin. Additional four, 10-fold or ½ log serial dilutions are made to provide a total of five drug concentrations plus control. Aliquots of 100 μl of these different drug dilutions are added to the appropriate microtiter wells already containing 100 μl of medium, resulting in the required final drug concentrations.
(§6) Following drug addition, the plates are incubated for an additional 48 h at 37°C, 5 % CO2, 95 % air, and 100 % relative humidity. For adherent cells, the assay is terminated by the addition of cold TCA. Cells are fixed in situ by the gentle addition of 50 μl of cold 50 % (w/v) TCA (final concentration, 10 % TCA) and incubated for 60 minutes at 4°C. The supernatant is discarded, and the plates are washed five times with tap water and air dried. Sulforhodamine B (SRB) solution (100 μl) at 0.4 % (w/v) in 1 % acetic acid is added to each well, and plates are incubated for 10 minutes at room temperature. After staining, unbound dye is removed by washing five times with 1 % acetic acid and the plates are air dried. Bound stain is subsequently solubilized with 10 mM trizma base, and the absorbance is read on an automated plate reader at a wavelength of 515 nm. For suspension cells, the methodology is the same except that the assay is terminated by fixing settled cells at the bottom of the wells by g ently adding 50 μl of 80 % TCA (final concentration, 16 % TCA). Using the seven absorbance measurements [time zero, (Tz), control growth, (C), and test growth in the presence of drug at the five concentration levels (Ti)], the percentage growth is calculated at each of the drug concentrations levels. Percentage growth inhibition is calculated as:
(§7) [(Ti-Tz)/(C-Tz)] x 100 for concentrations for which Ti>/=Tz
(§8) [(Ti-Tz)/Tz] x 100 for concentrations for which Ti<Tz.
(§9) Three dose response parameters are calculated for each experimental agent. Growth inhibition of […]
(§10) resulting in a 50% reduction in the net protein increase (as measured by SRB staining) in control cells during the drug incubation. The drug concentration resulting in total growth inhibition […]
(§11) (TGI) is calculated from Ti = Tz.

NCI-H522 = experiment: NCI 60 cell line screen; format: cell-based, human; conditions: for activity at 10 µM: Homo sapiens, NCI-H522, Non-Small Cell Lung Cancer, read-out: Percent growth
Protocol: as §2, §3, §4, §5, §6, §7, §8, §9, §10, §11

MDA-MB-468 = experiment: NCI 60 cell line screen; format: cell-based, human; conditions: for activity at 10 µM: Homo sapiens, MDA-MB-468, Breast Cancer, read-out: Percent growth
Protocol: as §2, §3, §4, §5, §6, §7, §8, §9, §10, §11

RXF 393 = experiment: NCI 60 cell line screen; format: cell-based, human; conditions: Homo sapiens; RXF 393, Renal Cancer; read-out: Percent growth
Protocol: as §2, §3, §4, §5, §6, §7, §8, §9, §10, §11

NCI-H23 = experiment: NCI 60 cell line screen; format: cell-based, human; conditions: Homo sapiens; NCI-H23, Non-Small Cell Lung Cancer; read-out: Percent growth
Protocol: as §2, §3, §4, §5, §6, §7, §8, §9, §10, §11

K-562 = experiment: NCI 60 cell line screen; format: cell-based, human; conditions: Homo sapiens, K562; K-562, Leukemia; read-out: Percent growth
Protocol: as §2, §3, §4, §5, §6, §7, §8, §9, §10, §11

HOP-92 = experiment: NCI 60 cell line screen; format: cell-based, human; conditions: for activity at 10 µM: Homo sapiens, HOP-92, Non-Small Cell Lung Cancer, read-out: Percent growth
Protocol: as §2, §3, §4, §5, §6, §7, §8, §9, §10, §11

SF-295 = experiment: NCI 60 cell line screen; format: cell-based, human; conditions: Homo sapiens; SF-295, CNS-Cancer; read-out: Percent growth
Protocol: as §2, §3, §4, §5, §6, §7, §8, §9, §10, §11

EKVX = experiment: NCI 60 cell line screen; format: cell-based, human; conditions: for activity at 10 µM: Homo sapiens, Non-Small Cell Lung Cancer, read-out: Percent growth
Protocol: as §2, §3, §4, §5, §6, §7, §8, §9, §10, §11

SK-MEL-5 = experiment: NCI 60 cell line screen; format: cell-based, human; conditions: for activity at 10 µM: Homo sapiens, SK-MEL-5, Melanoma, read-out: Percent growth; for percent inhibition: SK-MEL-5, NCI-60 heat map analysis
Protocol: as §2, §3, §4, §5, §6, §7, §8, §9, §10, §11

NCI/ADR-RES = experiment: NCI 60 cell line screen; format: cell-based, human; conditions: Homo sapiens, Ovarian Cancer, read-out: Percent growth
Protocol: as §2, §3, §4, §5, §6, §7, §8, §9, §10, §11

NCI-H226 = experiment: NCI 60 cell line screen; format: cell-based, human; conditions: for activity at 10 µM: Homo sapiens, NCI-H226, Non-Small Cell Lung Cancer, read-out: Percent growth; for percent inhibition: NCI-H226, NCI-60 heat map analysis
Protocol: as §2, §3, §4, §5, §6, §7, §8, §9, §10, §11

SR = experiment: NCI 60 cell line screen; format: cell-based, human; conditions: for activity at 10 µM: Homo sapiens, Leukemia, read-out: Percent growth; for percent inhibition: NCI-60 heat map analysis
Protocol: as §2, §3, §4, §5, §6, §7, §8, §9, §10, §11

T1 sequence (P15056 whole entry): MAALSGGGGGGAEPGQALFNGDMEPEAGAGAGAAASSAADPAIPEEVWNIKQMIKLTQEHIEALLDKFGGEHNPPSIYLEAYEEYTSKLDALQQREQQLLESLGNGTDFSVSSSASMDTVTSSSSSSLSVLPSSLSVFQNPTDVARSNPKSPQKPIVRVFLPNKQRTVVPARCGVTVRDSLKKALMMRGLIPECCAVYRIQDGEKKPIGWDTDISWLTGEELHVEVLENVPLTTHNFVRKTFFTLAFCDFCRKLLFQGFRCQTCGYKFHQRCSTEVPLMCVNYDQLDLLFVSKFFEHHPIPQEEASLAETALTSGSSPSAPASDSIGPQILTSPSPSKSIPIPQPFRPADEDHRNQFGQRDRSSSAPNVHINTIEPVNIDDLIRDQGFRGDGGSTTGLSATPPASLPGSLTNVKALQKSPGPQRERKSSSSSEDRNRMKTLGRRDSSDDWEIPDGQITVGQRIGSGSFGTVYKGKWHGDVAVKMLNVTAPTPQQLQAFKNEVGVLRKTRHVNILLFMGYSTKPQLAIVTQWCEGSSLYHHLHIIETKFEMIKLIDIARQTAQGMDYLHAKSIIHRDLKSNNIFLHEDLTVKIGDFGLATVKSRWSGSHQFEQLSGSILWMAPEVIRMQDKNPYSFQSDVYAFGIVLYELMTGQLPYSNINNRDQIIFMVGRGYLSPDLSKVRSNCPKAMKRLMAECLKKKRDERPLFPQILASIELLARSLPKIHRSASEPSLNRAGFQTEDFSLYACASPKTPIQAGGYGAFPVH

Row | SMILES | IC50 (BRAF (wild-type)) [nM] | IC50 (CRAF) [nM] | activity at 10 µM (U251) [%] | activity at 10 µM (NCI-H522) [%] | activity at 10 µM (MDA-MB-468) [%] | activity at 10 µM (RXF 393) [%] | activity at 10 µM (NCI-H23) [%] | activity at 10 µM (K-562) [%] | activity at 10 µM (HOP-92) [%] | activity at 10 µM (SF-295) [%] | activity at 10 µM (EKVX) [%] | activity at 10 µM (SK-MEL-5) [%] | percent inhibition (SK-MEL-5) [%] | activity at 10 µM (NCI/ADR-RES) [%] | activity at 10 µM (NCI-H226) [%] | percent inhibition (NCI-H226) | activity at 10 µM (SR) [%] | percent inhibition (SR) | other results
1 | Cc1ccc(S(=O)(=O)NCCNc2nccc(-n3cnc4ccccc43)n2)cc1 [12g, N-(2-((4-(1H-benzo [d]imidazol-1-yl)pyrimidin-2-yl)amino)ethyl)-4-methyl benzenesulfonamide] | 1530 ± 260 | 1480 ± 99 | 85.2 | 64.6 | 51 | 55.4 | 74.6 | 56.1 | 57.9 | 75.5 | 56.1 | 20.8 | 80 | 75.7 | 58.7 | around 40% | 53.6 | around 45% | percent inhibition (MDA-MB-468; MDA-MB-468, NCI-60 heat map analysis): 49%; percent inhibition (HOP-92; HOP-92, NCI-60 heat map analysis): around 40%
2 | O=S(=O)(NCCCNc1nccc(-n2cnc3ccccc32)n1)c1ccccc1 [12h, N-(3-((4-(1H-benzo [d]imidazol-1-yl)pyrimidin-2-yl)amino)propyl)benzenesulfonamide] | 2320 ± 110 | 2140 ± 78 | 98.2 | 82.7 | 68.8 | 110 | 91.8 | 79.5 | 84.8 | 92.5 | 88.9 | 60.2 | 40 | 86.2 | 81 | – | 80 | – | –
3 | O=S(=O)(NCCCNc1nccc(-n2cnc3ccccc32)n1)c1ccc(F)cc1 [12i, N-(3-((4-(1H-benzo [d]imidazol-1-yl)pyrimidin-2-yl)amino)propyl)-4-fluorobenzenesulfonamide] | 1330 ± 81 | 980 ± 44 | 93.8 | 68.5 | 50.2 | 163 | 70.4 | 37.2 | 87.9 | 70.6 | 61.2 | 2.63 | 97 | 64.3 | 64.1 | around 30% | 36.8 | – | percent inhibition (NCI-H522; NCI-H522, NCI-60 heat map analysis): around 30%; percent inhibition (EKVX; NCI-60 heat map analysis): around 30%
4 | O=S(=O)(NCCCNc1nccc(-n2cnc3ccccc32)n1)c1ccc(Cl)cc1 [12j, N-(3-((4-(1H-benzo [d]imidazol-1-yl)pyrimidin-2-yl)amino)propyl)-4-chloro benzenesulfonamide] | 1130 ± 99 | 1020 ± 77 | 100 | 82.8 | 93.8 | 124 | 97.1 | 79.2 | 94.6 | 97.8 | 91 | 76.2 | – | 98.2 | 83.2 | – | 81.5 | – | –
5 | O=S(=O)(NCCCNc1nccc(-n2cnc3ccccc32)n1)c1ccc(Br)cc1 [12k, N-(3-((4-(1H-benzo [d]imidazol-1-yl)pyrimidin-2-yl)amino)propyl)-4-bromo benzenesulfonamide] | 1530 ± 110 | 990 ± 85 | 96.6 | 75.5 | 70.7 | 111 | 92.8 | 73.5 | 79.3 | 86.5 | 81.5 | 53.5 | 40 | 88.9 | 80.2 | – | 70.8 | 30% | –

From paper PMC8508980, “Design, Synthesis and Anticancer Profile of New 4-(1H-benzo[d]imidazol-1-yl)pyrimidin-2-amine-Linked Sulfonamide Derivatives with V600EBRAF Inhibitory Effect” (International Journal of Molecular Sciences, 2021)
